Like-named read-outs stand apart in the source and are kept apart here.
How the values were obtained:
[1] = system: T1, CC(C)=CCCC(C)(OC1OC(CO)C(O)C(O)C1O)C1CCC2(C)C1C(O)CC1C3(C)CCC(O)C(C)(C)C3CCC12C; test: Transport of ginsenosides in P-gp-overexpressing LLC-PK1-P-gp cells; type: in vitro ADME; conditions: other: B to A transport rate in LLC-PK1-P-gp cells, 6.25–200 μM, Michaelis–Menten fit
T1 construct: host or cells: LLC-PK1-P-gp cells (passage no. 25–28)
Experimental: (§1) LLC-PK1-P-gp cells (passage no. 25–28) were seeded onto collagen-coated permeable support (1.0 μm pore size) in 24-well plates at a density of 2.5 × 10^4 cells/insert and grown for 5 days with TEER values of over 500 Ω·cm^2 [24]. The A to B transport and B to A transport of GRg3, GRh2, CK, PPD, GRg1, GRh1, and PPT (20 μM each) were measured as previously described. The concentration dependency in the B to A transport of GRh2, CK, PPD, and PPT was measured in the range of 6.25–200 μM for GRh2, CK, PPD, and PPT.
(§2) For the transport study of ginsenosides in CaCo-2 cells and LLC-PK1-P-gp cells, the ginsenoside transport rate in the A to B or B to A directions was calculated from the slope of the regression line from the mean transported amounts versus time plot. The apparent permeability (Papp) was calculated using Equation (1). (1) Papp (×10^−6 cm/s)=transport rate (nmol/min)/concentration(μM)×area(cm^2)×60s
(§3) The efflux ratio was calculated by dividing the Papp of ginsenosides from the B to A direction by that from the A to B direction.
(§4) To measure the kinetic parameters of the concentration dependence on the P-gp-mediated ginsenoside efflux, the ginsenoside transport rate in the B to A direction (ν) versus the ginsenoside concentration (S) plot was fitted in the Michaelis–Menten Equation (2) using Sigma Plot (version 12.0, Systat Software Inc. Chicago, IL, USA). (2) ν=Vmax×S/Km+S

[2] = system: T2, CC(C)=CCCC(C)(O)C1CCC2(C)C1C(O)CC1C3(C)CCC(O)C(C)(C)C3CCC12C; test: as above; type: in vitro ADME; conditions: other: B to A transport rate in LLC-PK1-P-gp cells, 6.25–200 μM, Michaelis–Menten fit
T2 construct: host or cells: LLC-PK1-P-gp cells (passage no. 25–28)
Experimental: as §1, §2, §3, §4

[3] = system: T3, CC(C)=CCCC(C)(O)C1CCC2(C)C1C(O)CC1C3(C)CCC(O)C(C)(C)C3C(O)CC12C; test: as above; type: in vitro ADME; conditions: other: B to A transport rate in LLC-PK1-P-gp cells, 6.25–200 μM, Michaelis–Menten fit
T3 construct: host or cells: LLC-PK1-P-gp cells (passage no. 25–28)
Experimental: as §1, §2, §3, §4

[4] = system: T4, [H][C@@]1(O[C@H]2CC[C@]3(C)[C@@]4([H])C[C@@H](O)[C@]5([H])[C@@]([H])([C@@](C)(O)CCC=C(C)C)CC[C@@]5(C)[C@]4(C)CC[C@@]3([H])C2(C)C)O[C@H](CO)[C@@H](O)[C@H](O)[C@H]1O; test: as above; type: in vitro ADME; conditions: other: B to A transport rate in LLC-PK1-P-gp cells, 6.25–200 μM, Michaelis–Menten fit
T4 construct: host or cells: LLC-PK1-P-gp cells (passage no. 25–28)
Experimental: as §1, §2, §3, §4

LAB [5] = test: Incubation of individual ginsenosides with LAB (metabolic pathway); type: in vitro ADME; conditions: individual ginsenoside 10 μM with LAB (1 billion CFU), 7 days; GF2 to CK, CK to PPD, GRg1 to GRh1; result in words
Experimental: (§5) To identify the effects of LAB on ginsenoside metabolism, an in vitro fermentation study was performed according to the method of Jeon et al., with slight modifications. Briefly, RGE (10 mL, 1 pouch) and 2 g LAB (containing 1 billion CFU) were suspended in 10 mL autoclaved MRS broth (550 mg broth powder dissolved in 10 mL water). For the 15 ginsenosides, individual ginsenosides (10 μM each) and 2 g of LAB were suspended in 20 mL of autoclaved MRS broth (550 mg broth powder dissolved in 20 mL water). The mixture was incubated for 7 days in a shaking incubator at 37 °C and 300 rpm, and a 0.1 mL aliquot of the incubation mixture was collected on days 0, 3, 5, and 7. The incubation medium was diluted 100-fold with distilled water and stored at −80 °C to analyze ginsenosides using the LC-MS/MS system.
(§6) To measure the metabolic activity of ginsenosides, the formation rate of ginsenosides (pmol/day) was calculated by dividing the slope of the regression line by the amount of deglycosylated ginsenosides versus the incubation time plot by the initial concentration of individual ginsenosides.

P-gp = target: T5, P-gp (Homo sapiens, UniProt P08183); test: Transport of ginsenosides in P-gp-overexpressing LLC-PK1-P-gp cells; type: in vitro ADME
T5 construct: host or cells: LLC-PK1-P-gp cells (passage no. 25–28)
Experimental: as §1, §2, §3, §4

[6] = rat, in vivo, po; cited from earlier work
[7] = Pharmacokinetic study of ginsenosides in healthy humans after repeated oral RGE with or without LAB; type: in vivo, human; conditions: male, human, in vivo, po; for AUC: 104.1 mg
Experimental: A single-sequence study consisting of two periods was conducted on five healthy male subjects (body weight > 50 kg and age > 19 years) for 29 days. During the first period of the study (RGE treatment group), three pouches of RGE (30 mL, 104.1 mg of total ginsenosides) were administered to 5 subjects once daily for 14 days. On the 14th day, the subjects were admitted to the Clinical Trial Center of KNUH at 7 AM and underwent the last RGE administration at approximately 8–9 AM. Blood samples (approximately 3 mL) were collected at 0, 4, 6, 8, 10, 12, 13, 14, and 24 h after the last dose. A saline-locked angiocatheter was placed on the forearm of each subject’s hand. After discarding 1 mL of blood derived from the catheter, 3 mL of blood was drawn into a vacutainer tube containing heparin and centrifuged at 3000× g for 10 min. The supernatant plasma samples were stored at −80 °C until ginsenoside analysis.
In the second half of the study (RGE + LAB treatment group), 3 pouches of RGE (30 mL, 104.1 mg of total ginsenosides) and 1 pouch of LAB (1 billion CFU/2 g) were co-administered once daily for 14 days. On the […], the subjects were admitted to the Clinical Trial Center of KNUH at 7 AM and received the last red ginseng dose at approximately 8–9 AM. Blood samples (approximately 3 mL) were withdrawn at 0, 4, 6, 8, 10, 12, 13, 14, and 24 h intervals after the last dose and centrifuged at 3000× g for 10 min; the supernatant plasma samples were stored at −80 °C.
Briefly, to analyze GRb1, GRb2, GRc, GRd, GRe, GRf, GRg1, GRg3, GF1, and GF2, 400 μL of an internal standard (IS; 0.05 ng/mL berberine in methanol) was added to 100 μL of plasma. The mixture was vortexed for 15 min and centrifuged at 16,000× g for 5 min. After centrifugation, 400 μL of the supernatant was evaporated using a speed-dry vacuum concentrator (Christ, Osterode am Harz, Germany). The residue was reconstituted using 200 μL of 70% methanol supplemented with 0.1% formic acid, and a 10 μL aliquot was injected into the LC-MS/MS system. Chromatographic separation was performed using a Polar RP column (150 × 2.0 mm, 4.0 μm particle size; Phenomenex, Torrance, CA, USA) using a mobile phase consisting of 0.1% formic acid in water (phase A) and 0.1% formic acid in methanol (phase B). The following elution gradient was used: 69% of phase B for 0–2.0 min, 69–85% of phase B for 2.0–4.0 min, and 85–69% of phase B for 6.0–6.5 min. The flow rate was 0.27 mL/min.
The mixture was vortexed for 10 min and centrifuged at 16,000× g for 5 min. After centrifugation, the samples were frozen at −80 °C for 4 h. The upper layer was transferred to a clean tube and evaporated. The residue was reconstituted using 200 μL of 80% methanol supplemented with 0.1% formic acid, and a 10 μL aliquot was injected into the LC-MS/MS system. Chromatographic separation was performed using a Luna C18 column (150 × 2.0 mm, 3.0 μm particle size; Phenomenex, Torrance, CA, USA) and using a mobile phase consisting of water containing 0.1% formic acid: methanol containing 0.1% formic acid = 8:92 (v/v) at a flow rate of 0.15 mL/min.
The quantification of ginsenosides was carried out using multiple reaction monitoring in positive ionization mode, as previously described.
Finally, pharmacokinetic parameters were calculated using non-compartmental methods (WinNonlin version 5.1; Pharsight Co., Certara, NJ, USA). Statistical analysis was performed by Student’s t-test to compare the two groups using IBM SPSS Statistics for Windows (version 25.0; IBM Corp., Armonk, NY, USA). Differences were considered significant at p < 0.05.

[8] = set-up: method as in PMID 34575573; conditions: mice, LAB supplementation (Lacto-fit) for two weeks; cited from earlier work
[9] = Transport (permeability) of ginsenosides in CaCo-2 cell monolayers; type: in vitro ADME; conditions: human; for efflux ratio at 50 µM: Caco-2, Efflux ratio (ER)
Experimental: CaCo-2 cells (passage no 41–43) were seeded onto collagen-coated permeable support (1.0 μm pore size) in a 24-well plate at a density of 2.5 × 10^4 cells/insert and cultured for 21 days in Dulbecco’s modified eagle’s medium supplemented with 10% fetal bovine serum, 1% non-essential amino acids, and 1% penicillin-streptomycin at 37 °C in a humidified atmosphere (5% CO2/95% air). After confirming that the transepithelial electrical resistance (TEER) of the CaCo-2 cell monolayer was over 400 Ω·cm^2, Apical to basal (A to B) transport and B to A transport of ginsenosides using 50 µM, GRb1 was investigated as previously described. The same permeability study was performed using 50 µM GRb2, GRc, GRd, GRg3, GRh2, GF2, CK, PPD, GRe, GRf, GRg1, GRh1, GF1, or PPT.
as §2, §3

LAB [10] = test: In vitro RGE fermentation with LAB; type: in vitro ADME; conditions: RGE incubated with LAB (1 billion CFU) for 7 days at 37 °C; result in words
Experimental: as §5, §6

[11] = pig, LLC-PK1, LLC-PK1-P-gp cells, 20 μM, B to A Papp divided by A to B Papp, read-out: ER
[12] = pig, LLC-PK1-P-gp cells, 20 μM, mean ± SD, n = 3, read-out: A to B permeability
[13] = pig, LLC-PK1-P-gp cells, 20 μM, mean ± SD, n = 3, read-out: B to A permeability

T5 sequence (P08183 whole entry): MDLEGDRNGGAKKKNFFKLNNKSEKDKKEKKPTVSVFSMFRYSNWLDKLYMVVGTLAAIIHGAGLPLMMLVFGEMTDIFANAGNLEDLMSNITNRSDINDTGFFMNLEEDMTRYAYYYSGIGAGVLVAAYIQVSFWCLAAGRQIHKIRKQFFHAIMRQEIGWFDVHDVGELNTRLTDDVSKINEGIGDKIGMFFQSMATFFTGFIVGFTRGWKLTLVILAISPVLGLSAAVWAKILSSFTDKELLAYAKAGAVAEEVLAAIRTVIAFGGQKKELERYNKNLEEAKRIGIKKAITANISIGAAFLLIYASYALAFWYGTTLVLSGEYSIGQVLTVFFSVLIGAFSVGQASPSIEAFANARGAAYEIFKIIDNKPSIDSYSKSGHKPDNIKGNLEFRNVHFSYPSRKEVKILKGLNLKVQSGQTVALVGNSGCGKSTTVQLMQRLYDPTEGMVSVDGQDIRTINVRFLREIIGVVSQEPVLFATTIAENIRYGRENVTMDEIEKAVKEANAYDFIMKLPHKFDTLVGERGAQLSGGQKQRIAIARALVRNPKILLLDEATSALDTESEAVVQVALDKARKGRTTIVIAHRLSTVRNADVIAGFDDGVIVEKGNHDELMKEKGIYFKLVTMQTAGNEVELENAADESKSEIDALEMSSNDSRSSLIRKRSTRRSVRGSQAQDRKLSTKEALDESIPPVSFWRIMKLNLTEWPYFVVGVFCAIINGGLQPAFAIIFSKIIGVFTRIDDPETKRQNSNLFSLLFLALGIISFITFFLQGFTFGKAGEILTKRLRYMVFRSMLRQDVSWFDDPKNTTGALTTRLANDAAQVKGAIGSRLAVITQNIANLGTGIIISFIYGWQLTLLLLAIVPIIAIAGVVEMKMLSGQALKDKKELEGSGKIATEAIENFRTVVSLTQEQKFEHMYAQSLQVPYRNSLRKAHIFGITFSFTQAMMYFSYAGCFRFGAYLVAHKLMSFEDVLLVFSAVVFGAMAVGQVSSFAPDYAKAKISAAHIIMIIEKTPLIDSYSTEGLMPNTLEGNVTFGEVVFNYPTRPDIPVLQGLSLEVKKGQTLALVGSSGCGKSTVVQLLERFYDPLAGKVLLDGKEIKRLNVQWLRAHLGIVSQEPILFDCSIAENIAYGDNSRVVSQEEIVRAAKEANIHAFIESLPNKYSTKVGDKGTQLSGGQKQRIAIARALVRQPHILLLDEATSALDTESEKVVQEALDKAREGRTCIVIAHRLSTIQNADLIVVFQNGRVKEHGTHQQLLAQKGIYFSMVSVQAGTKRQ

Compound	LAB-mediated deglycosylation (formation of deglycosylated ginsenoside from the incubated ginsenoside) (LAB [5])	Papp A→B at 20 μM (P-gp; pig, LLC-PK1) [×10⁻⁶ cm/s]	Papp B→A at 20 μM (P-gp; pig, LLC-PK1) [×10⁻⁶ cm/s]	CLint (intrinsic clearance) (P-gp; pig, llc-pk1) [µL/min]	Oral BA [6]	AUC [7] [ng·h/mL]	MRT [7] [h]	Tmax [7] [h]	AUC fold increase with LAB supplementation compared to control groups [8] [fold]	efflux ratio at 20 μM (P-gp; [11])	Papp A→B at 20 μM (P-gp; [12]) [×10⁻⁶ cm/s]	Papp B→A at 20 μM (P-gp; [13]) [×10⁻⁶ cm/s]	efflux ratio at 50 µM [9]	Cmax ([7]; Cmax) [ng/mL]	Relative abundance / metabolic activity following fermentation of RGE with LAB (LAB [10])	other results
P-gp (Homo sapiens)	–	–	–	–	–	–	–	–	–	–	–	–	–	–	–	Km [1]: 98 µM; Vmax [1]: 67.7 nmol/min; Km [2]: 76 µM; Vmax [2]: 0.40 nmol/min; Km [3]: 83 µM; Vmax [3]: 19.2 nmol/min; Km [4]: 151 µM; Vmax [4]: 75.9 nmol/min
CC(C)=CCCC(C)(OC1OC(CO)C(O)C(O)C1O)C1CCC2(C)C1C(O)CC1C3(C)CCC(O)C(C)(C)C3CCC12C (stereo not drawn) [CK, compound K]	the highest	0.14	8.25 ± 0.58	690	4.3%	57.9 ± 16.6	17.2 ± 4.5	8 ± 4	–	–	–	–	–	–	–	Cmax [7]: 5.1 ± 2.2 ng/mL
CC(C)=CCCC(C)(O)C1CCC2(C)C1C(O)CC1C3(C)CCC(O)C(C)(C)C3CCC12C (stereo not drawn) [PPD, 20(s)-protopanaxadiol]	–	–	–	–	36.8–48.1%	130 ± 39.9	18.6 ± 5	16 ± 18.5	2.67	3.3	0.13 ± 0.01	0.42 ± 0.04	2.7	7.6 ± 1.7	significantly increased	CLint (intrinsic clearance) (P-gp; P-gp-mediated B to A transport in LLC-PK1-P-gp cells): 5.2 µL/min; Oral bioavailability (BA) [6]: 36.8–48.1%
CC(C)=CCCC(C)(O)C1CCC2(C)C1C(O)CC1C3(C)CCC(O)C(C)(C)C3C(O)CC12C (stereo not drawn) [PPT, 20(s)-protopanaxatriol]	–	3.73 ± 0.56	10 ± 1.1	231	3.7%	59.9 ± 49.2	19.4 ± 10.5	17.4 ± 17.4	1.63	–	–	–	2.7	9.5 ± 4.8	significantly increased	efflux ratio at 20 μM (P-gp; pig, LLC-PK1, ER): 2.7
CC(C)=CCCC(C)(OC1OC(CO)C(O)C(O)C1O)C1CCC2(C)C1C(O)CC1C3(C)CCC(O)C(C)(C)C3C(OC3OC(CO)C(O)C(O)C3O)CC12C (stereo not drawn) [GRg1]	the highest	–	–	–	–	–	–	–	–	1	0.1 ± 0.02	0.1 ± 0.03	–	–	marked decrease	Papp A→B at 50 µM ([9]; CaCo-2 cell monolayers, 50 µM ginsenoside, read-out: A to B Papp): < 0.3 ×10⁻⁶ cm/s

Reference: article PMC9775652, “Concomitant Administration of Red Ginseng Extract with Lactic Acid Bacteria Increases the Plasma Concentration of Deglycosylated Ginsenosides in Healthy Human Subjects” (Biomolecules, 2022)
